Reference: US20050143450A1, “Alkyl PCDF as a treatment for prostate cancer” (priority 2002, published 2005)
Read-outs that look alike come from different tables or passages of the source.

System: LNCaP prostate cancer cells
Type: cell-based, human
Conditions: 48 h
Description: Cells were analyzed on a FACS Calibur (Becton Dickinson, San Jose, Calif.) flow cytometer, equipped with a 15 mW air-cooled argon laser, using CellQuest (Becton Dickinson) acquisition software. Propidium iodide (PI) fluorescence was collected through a 585/42-nm bandpass filter, and list mode data were acquired on a minimum of 12,000 single cells defined by a dot plot of PI-width versus PI-area. Data analysis was performed in ModFit LT (Verity Software House, Topsham, Me.) using PI-width versus PI-area to exclude cell aggregates.
The effects of TCDD on cell cycle progression was also determined in LNCaP cells treated with 1.0, 10 and 100 nM TCDD for 48 h followed by FACS analysis (Table 1).

`Clc1cc2c(cc1Cl)Oc1cc(Cl)c(Cl)cc1O2` [TCDD, 2,3,7,8-tetrachloro-p-dioxin] was tested, and the “cells in S phase” value (1.0, 10 and 100 nM) was “decrease”, the “percentage of cells in G0/G1” value (1.0, 10 and 100 nM) was “small but significant increase” and the “Percent Distribution G0/G1” value (10^−7 M) was 77.500 ± 0.451%. For the same compound, the “Percent Distribution G2/M” value (10^−7 M) was 8.943 ± 0.471%, the “Percent Distribution S” value (10^−7 M) was 13.567 ± 0.176% and the “Percent Distribution G0/G1” value (10^−8 M) was 75.367 ± 0.636%. The “Percent Distribution G2/M” value (10^−8 M) was 10.300 ± 0.153%, the “Percent Distribution S” value (10^−8 M) was 14.3 ± 0.666% and the “Percent Distribution G0/G1” value (10^−9 M) was 74.300 ± 0.751%. The “Percent Distribution G2/M” value (10^−9 M) was 10.633 ± 0.376% and the “Percent Distribution S” value (10^−9 M) was 14.7 ± 0.520%.
